Results as given in paper PMC8955712, “Rapid Mining of Novel α-Glucosidase and Lipase Inhibitors from Streptomyces sp. HO1518 Using UPLC-QTOF-MS/MS” (Marine Drugs, 2022).
Read-outs that look alike come from different tables or passages of the source.

Tests used:
Assay type in all cases: biochemical
[1] = molecular target: T1, Porcine pancreatic α-amylase (PPA) (Sus scrofa, UniProt P00690); assay: PPA inhibition assay; conditions: for IC50: read-out: IC50 Values Against PPA
T1 construct: purchased Sigma Aldrich Co. (St Louis, MO, USA)
T1 sequence (P00690 16-511): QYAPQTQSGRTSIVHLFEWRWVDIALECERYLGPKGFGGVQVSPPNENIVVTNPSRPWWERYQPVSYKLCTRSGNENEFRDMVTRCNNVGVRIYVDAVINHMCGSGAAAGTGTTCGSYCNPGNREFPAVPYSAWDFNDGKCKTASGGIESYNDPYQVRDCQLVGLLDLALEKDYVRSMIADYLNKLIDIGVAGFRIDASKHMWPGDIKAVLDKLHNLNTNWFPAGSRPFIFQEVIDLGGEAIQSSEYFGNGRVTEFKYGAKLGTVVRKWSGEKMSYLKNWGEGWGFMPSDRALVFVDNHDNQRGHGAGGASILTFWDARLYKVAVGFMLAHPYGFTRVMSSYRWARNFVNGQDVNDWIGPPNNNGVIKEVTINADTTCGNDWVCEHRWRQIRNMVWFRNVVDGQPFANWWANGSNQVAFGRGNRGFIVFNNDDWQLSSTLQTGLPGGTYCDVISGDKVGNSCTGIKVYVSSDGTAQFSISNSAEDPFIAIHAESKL
Description: (§1) The HPLC-grade methanol and acetonitrile were purchased from CINC High Purity Solvents (Shanghai) Co., Ltd. (Shanghai, China). The other solvents were of analytical grade (Sinopharm Chemical Reagent Co., Ltd., Beijing, China). Porcine pancreatic α-amylase (PPA) and PL were purchased from Sigma Aldrich Co. (St Louis, MO, USA). […] Standards 1–9 were previously isolated from Streptomyces sp. HO1518 by our group.

sucrase = assay: Sucrase inhibition assay; conditions: mean ± SD; acarbose positive control; read-out: IC50 Values Against Sucrase
Description: The HPLC-grade methanol and acetonitrile were purchased from CINC High Purity Solvents (Shanghai) Co., Ltd. (Shanghai, China). The other solvents were of analytical grade (Sinopharm Chemical Reagent Co., Ltd., Beijing, China). Porcine pancreatic α-amylase (PPA) and PL were purchased from Sigma Aldrich Co. (St Louis, MO, USA). Sucrase and acarbose were obtained from Shanghai yuanye Bio-Technology Co., Ltd. (Shanghai, China). Orlistat was bought from Shanghai xushuo Bio-Technology Co., Ltd. (Shanghai, China). Standards 1–9 were previously isolated from Streptomyces sp. HO1518 by our group.
The sucrase inhibition assay of compounds 9–20 was evaluated according to the previously reported method.

pancreatic lipase (PL) = molecular target: T2, pancreatic lipase (PL) (Sus scrofa, UniProt P00591); assay: PL (lipase) inhibition assay; conditions: read-out: IC50 Values Against PL
T2 construct: purchased Sigma Aldrich Co. (St Louis, MO, USA)
T2 sequence (P00591 1-450): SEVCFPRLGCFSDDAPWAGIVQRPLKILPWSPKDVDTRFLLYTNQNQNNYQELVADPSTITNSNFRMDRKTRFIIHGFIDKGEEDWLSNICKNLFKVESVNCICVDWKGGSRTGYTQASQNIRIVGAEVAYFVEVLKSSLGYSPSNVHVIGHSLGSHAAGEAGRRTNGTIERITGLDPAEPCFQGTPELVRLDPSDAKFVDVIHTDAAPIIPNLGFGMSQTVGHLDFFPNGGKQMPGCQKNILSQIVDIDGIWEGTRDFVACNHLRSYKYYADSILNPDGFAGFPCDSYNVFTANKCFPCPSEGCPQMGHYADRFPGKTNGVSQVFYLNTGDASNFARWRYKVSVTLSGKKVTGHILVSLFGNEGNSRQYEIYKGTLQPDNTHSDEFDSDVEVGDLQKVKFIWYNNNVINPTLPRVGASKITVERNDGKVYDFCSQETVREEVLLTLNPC
Description: as §1

[2] = mean ± SD, acarbose positive control
[3] = mean ± SD, orlistat positive control

Structure (SMILES)	IC50 [1]	IC50 (sucrase)	IC50 (pancreatic lipase (PL))	IC50 [1, 2]	IC50 (pancreatic lipase (PL); [3])	fold more effective than acarbose (α-amylase inhibition) ([1]; ratio of PPA IC50 values, acarbose vs compound)
CCCC(=O)OC[C@H]1O[C@H](O[C@H]2[C@H](O)[C@@H](O)[C@@H](O[C@H]3[C@H](O)[C@@H](O)[C@@H](O[C@H]4[C@H](O)[C@@H](O)C(O)O[C@@H]4CO)O[C@@H]3CO)O[C@@H]2CO)[C@H](O)[C@@H](O)[C@@H]1O[C@H]1O[C@H](C)[C@@H](N[C@H]2C=C(CO)[C@@H](O)[C@H](O)[C@H]2O)[C@H](O)[C@H]1O (stereo partly drawn) [Compound 18, Bu-Aca I03]	0.402 ± 0.008 µM	3.8 ± 0.78 µM	11.7 ± 2.52 µM			
CCC(=O)OC[C@H]1O[C@H](O[C@H]2[C@H](O)[C@@H](O)[C@@H](O[C@H]3[C@H](O)[C@@H](O)C(O)O[C@@H]3CO)O[C@@H]2CO)[C@H](O)[C@@H](O)[C@@H]1O[C@H]1O[C@H](C)[C@@H](N[C@H]2C=C(CO)[C@@H](O[C@H]3O[C@H](CO)[C@@H](O[C@H]4O[C@H](C)[C@@H](N[C@H]5C=C(CO)[C@@H](O)[C@H](O)[C@H]5O)[C@H](O)[C@H]4O)[C@H](O)[C@H]3O)[C@H](O)[C@H]2O)[C@H](O)[C@H]1O (stereo partly drawn) [Compound 11, D6-O-Propionyl-acarviostatin II02]	0.079 ± 0.001 µM	4.34 ± 0.24 µM	7.22 ± 0.1 µM			
C[C@H]1O[C@H](O[C@H]2[C@H](O)[C@@H](O)[C@@H](O[C@H]3[C@H](O)[C@@H](O)[C@@H](O[C@H]4[C@H](O)[C@@H](O)[C@@H](O[C@H]5[C@H](O)[C@@H](O)C(O)O[C@@H]5CO)O[C@@H]4CO)O[C@@H]3CO)O[C@@H]2CO)[C@H](O)[C@@H](O)[C@@H]1N[C@H]1C=C(CO)[C@@H](O)[C@H](O)[C@H]1O (stereo partly drawn) [Compound 17, acarviostatin I03]	0.296 ± 0.007 µM	11.1 ± 0.24 µM	31.6 ± 4.13 µM			
C[C@H]1O[C@H](O[C@H]2[C@H](O)[C@@H](O)[C@@H](O[C@H]3[C@H](O)[C@@H](O)[C@@H](O[C@H]4[C@H](O)[C@@H](O)C(O)O[C@@H]4CO)O[C@@H]3CO)O[C@@H]2CO)[C@H](O)[C@@H](O)[C@@H]1N[C@H]1C=C(CO)[C@@H](O[C@H]2O[C@H](CO)[C@@H](O[C@H]3O[C@H](C)[C@@H](N[C@H]4C=C(CO)[C@@H](O)[C@H](O)[C@H]4O)[C@H](O)[C@H]3O)[C@H](O)[C@H]2O)[C@H](O)[C@H]1O (stereo partly drawn) [Compound 10, Acarviostatin II02]	0.084 ± 0.001 µM	13.1 ± 0.55 µM	12.7 ± 0.76 µM			
CC(C)CC(=O)OC[C@H]1O[C@H](O[C@H]2[C@H](O)[C@@H](O)[C@@H](O[C@H]3[C@H](O)[C@@H](O)C(O)O[C@@H]3CO)O[C@@H]2CO)[C@H](O)[C@@H](O)[C@@H]1O[C@H]1O[C@H](C)[C@@H](N[C@H]2C=C(CO)[C@@H](O[C@H]3O[C@H](CO)[C@@H](O[C@H]4O[C@H](C)[C@@H](N[C@H]5C=C(CO)[C@@H](O)[C@H](O)[C@H]5O)[C@H](O)[C@H]4O)[C@H](O)[C@H]3O)[C@H](O)[C@H]2O)[C@H](O)[C@H]1O (stereo partly drawn) [Compound 13, D6-O-Isovaleryl-acarviostatin II02]	0.092 ± 0.001 µM	7.06 ± 0.09 µM	1.56 ± 0.04 µM			
CCC(C)C(=O)OC[C@H]1O[C@H](O[C@H]2[C@H](O)[C@@H](O)[C@@H](O[C@H]3[C@H](O)[C@@H](O)[C@@H](O[C@H]4[C@H](O)[C@@H](O)C(O)O[C@@H]4CO)O[C@@H]3CO)O[C@@H]2CO)[C@H](O)[C@@H](O)[C@@H]1O[C@H]1O[C@H](C)[C@@H](N[C@H]2C=C(CO)[C@@H](O[C@H]3O[C@H](CO)[C@@H](O[C@H]4O[C@H](C)[C@@H](N[C@H]5C=C(CO)[C@@H](O)[C@H](O)[C@H]5O)[C@H](O)[C@H]4O)[C@H](O)[C@H]3O)[C@H](O)[C@H]2O)[C@H](O)[C@H]1O (stereo partly drawn) [Compound 16, D6-O-2-Methyl-butyryl-acarviostatin II03]		7.28 ± 0.1 µM		0.052 ± 0.003 µM	1.34 ± 0.03 µM	
CC1OC(OC2C(CO)OC(OC3C(CO)=CC(NC4C(C)OC(OC5C(CO)OC(OC6C(CO)OC(OC7C(CO)OC(OC8C(CO)OC(O)C(O)C8O)C(O)C7O)C(O)C6O)C(O)C5O)C(O)C4O)C(O)C3O)C(O)C2O)C(O)C(O)C1NC1C=C(CO)C(O)C(O)C1O (stereo not drawn) [Compound 9, acarviostatin II03]	0.03 ± 0.001 µM	17.2 ± 0.76 µM	7.64 ± 0.13 µM			282 fold
CC(C)C(=O)OC[C@H]1O[C@H](O[C@H]2[C@H](O)[C@@H](O)[C@@H](O[C@H]3[C@H](O)[C@@H](O)C(O)O[C@@H]3CO)O[C@@H]2CO)[C@H](O)[C@@H](O)[C@@H]1O[C@H]1O[C@H](C)[C@@H](N[C@H]2C=C(CO)[C@@H](O[C@H]3O[C@H](CO)[C@@H](O[C@H]4O[C@H](C)[C@@H](N[C@H]5C=C(CO)[C@@H](O)[C@H](O)[C@H]5O)[C@H](O)[C@H]4O)[C@H](O)[C@H]3O)[C@H](O)[C@H]2O)[C@H](O)[C@H]1O (stereo partly drawn) [Compound 12, D6-O-Isobutyryl-acarviostatin II02]	0.085 ± 0.006 µM	6.79 ± 0.06 µM	5.48 ± 0.18 µM			
C[C@H]1O[C@H](O[C@H]2[C@H](O)[C@@H](O)[C@@H](O[C@H]3[C@H](O)[C@@H](O)C(O)O[C@@H]3CO)O[C@@H]2CO)[C@H](O)[C@@H](O)[C@@H]1N[C@H]1C=C(CO)[C@@H](O)[C@H](O)[C@H]1O (stereo partly drawn) [acarbose, reference compound]		2.34 ± 0.23 µM	191 ± 15.2 µM			
CC(O)CC(=O)OC[C@H]1O[C@H](O[C@H]2[C@H](O)[C@@H](O)[C@@H](O[C@H]3[C@H](O)[C@@H](O)[C@@H](O[C@H]4[C@H](O)[C@@H](O)C(O)O[C@@H]4CO)O[C@@H]3CO)O[C@@H]2CO)[C@H](O)[C@@H](O)[C@@H]1O[C@H]1O[C@H](C)[C@@H](N[C@H]2C=C(CO)[C@@H](O[C@H]3O[C@H](CO)[C@@H](O[C@H]4O[C@H](C)[C@@H](N[C@H]5C=C(CO)[C@@H](O)[C@H](O)[C@H]5O)[C@H](O)[C@H]4O)[C@H](O)[C@H]3O)[C@H](O)[C@H]2O)[C@H](O)[C@H]1O (stereo partly drawn) [Compound 19, Hbu-Aca II03]		9.67 ± 0.1 µM		0.061 ± 0.005 µM	1 ± 0.12 µM	
CCC(=O)OC[C@H]1O[C@H](O[C@H]2[C@H](O)[C@@H](O)[C@@H](O[C@H]3[C@H](O)[C@@H](O)[C@@H](O[C@H]4[C@H](O)[C@@H](O)C(O)O[C@@H]4CO)O[C@@H]3CO)O[C@@H]2CO)[C@H](O)[C@@H](O)[C@@H]1O[C@H]1O[C@H](C)[C@@H](N[C@H]2C=C(CO)[C@@H](O[C@H]3O[C@H](CO)[C@@H](O[C@H]4O[C@H](C)[C@@H](N[C@H]5C=C(CO)[C@@H](O)[C@H](O)[C@H]5O)[C@H](O)[C@H]4O)[C@H](O)[C@H]3O)[C@H](O)[C@H]2O)[C@H](O)[C@H]1O (stereo partly drawn) [Compound 14, D6-O-Propionyl-acarviostatin II03]		2.56 ± 0.12 µM		0.035 ± 0.001 µM	4.21 ± 0.03 µM	
CCCC(=O)OC[C@H]1O[C@H](O[C@H]2[C@H](O)[C@@H](O)[C@@H](O[C@H]3[C@H](O)[C@@H](O)[C@@H](O[C@H]4[C@H](O)[C@@H](O)C(O)O[C@@H]4CO)O[C@@H]3CO)O[C@@H]2CO)[C@H](O)[C@@H](O)[C@@H]1O[C@H]1O[C@H](C)[C@@H](N[C@H]2C=C(CO)[C@@H](O[C@H]3O[C@H](CO)[C@@H](O[C@H]4O[C@H](C)[C@@H](N[C@H]5C=C(CO)[C@@H](O)[C@H](O)[C@H]5O)[C@H](O)[C@H]4O)[C@H](O)[C@H]3O)[C@H](O)[C@H]2O)[C@H](O)[C@H]1O (stereo partly drawn) [Compound 15, D6-O-Butyryl-acarviostatin II03]		10.7 ± 2.6 µM		0.059 ± 0.007 µM	4.46 ± 0.14 µM	
CC(C)CC(=O)OC[C@H]1O[C@H](O[C@H]2[C@H](O)[C@@H](O)[C@@H](O[C@H]3[C@H](O)[C@@H](O)[C@@H](O[C@H]4[C@H](O)[C@@H](O)C(O)O[C@@H]4CO)O[C@@H]3CO)O[C@@H]2CO)[C@H](O)[C@@H](O)[C@@H]1O[C@H]1O[C@H](C)[C@@H](N[C@H]2C=C(CO)[C@@H](O[C@H]3O[C@H](CO)[C@@H](O[C@H]4O[C@H](C)[C@@H](N[C@H]5C=C(CO)[C@@H](O)[C@H](O)[C@H]5O)[C@H](O)[C@H]4O)[C@H](O)[C@H]3O)[C@H](O)[C@H]2O)[C@H](O)[C@H]1O (stereo partly drawn) [Compound 20, isoVa-Aca II03]		9.93 ± 0.5 µM		0.08 ± 0.003 µM	1.43 ± 0.08 µM	
